# Measured values: ChEMBL document CHEMBL5260828, “Amphiphilic glycoconjugates as potential anti-cancer chemotherapeutics” (Eur J Med Chem, 2018)
# What was measured:
# Type in all cases: functional, cell-based
# HepG2 = assay: Cytotoxicity against human HepG2 cells assessed as cell growth inhibition by MTT colorimetric assay
# Hep 3B2 = assay: Cytotoxicity against human Hep3B cells assessed as cell growth inhibition by MTT colorimetric assay
# MDA-MB-231 = assay: Cytotoxicity against human MDA-MB-231 cells assessed as cell growth inhibition by MTT colorimetric assay
# Ca9-22 = assay: Cytotoxicity against human Ca9-22 cells assessed as cell growth inhibition by MTT colorimetric assay
# HeLa [1] = assay: Antiproliferative activity against human HeLa cells assessed as inhibition of cell growth incubated for 24 hrs by MTT assay
# MIA PaCa-2 = assay: Cytotoxicity against human MIA PaCa-2 cells assessed as inhibition of cell growth incubated for 72 hrs by CellTiter 96 aqueous one solution assay; conditions: MIA PaCa-2, 72 h
# PK9 = assay: Cytotoxicity against human PK9 cells assessed as inhibition of cell growth incubated for 72 hrs by CellTiter 96 aqueous one solution assay; conditions: PK9, 72 h
# HeLa [2] = assay: Cytotoxicity against human HeLa cells assessed as inhibition of cell proliferation incubated for 72 hrs by MTT assay
# HL-60 = assay: Cytotoxicity against human HL-60 cells assessed as inhibition of cell proliferation incubated for 72 hrs by MTT assay; conditions: HL-60, 72 h
# AGS = assay: Antiproliferative activity against human AGS cells assessed as inhibition of cell growth incubated for 48 hrs by MTT assay
# SF-268 = assay: Antiproliferative activity against human SF-268 cells assessed as inhibition of cell growth incubated for 48 hrs by MTT assay
# HCT-116 [3] = assay: Antiproliferative activity against human HCT-116 cells assessed as inhibition of cell growth incubated for 48 hrs by MTT assay
# NCI-H460 = assay: Antiproliferative activity against human NCI-H460 cells assessed as inhibition of cell growth incubated for 48 hrs by MTT assay
# MCF7 = assay: Antiproliferative activity against human MCF7 cells assessed as inhibition of cell growth incubated for 48 hrs by MTT assay
# HeLa S3 [4] = assay: Cytotoxicity against human HeLa S3 cells assessed as inhibition of cell proliferation incubated for 72 hrs by MTT assay; conditions: HeLa S3, 72 h
# SMMC-7721 = assay: Cytotoxicity against human SMMC-7721 cells assessed as cell growth inhibition incubated for 48 hrs by MTT assay; conditions: SMMC-7721, 48 h
# HeLa [5] = assay: Cytotoxicity against human HeLa cells assessed as cell growth inhibition incubated for 48 hrs by MTT assay
# B16 [6] = assay: Cytotoxicity against mouse B16 cells assessed as cell growth inhibition incubated for 48 hrs by MTT assay; conditions: B16, 48 h
# Lung NSCLC-N6 cell-line = assay: Cytotoxicity against human Lung NSCLC-N6 cell-line by MTT colorimetric assay
# HCT-116 [7] = assay: Cytotoxicity against human HCT-116 cells assessed as cell growth inhibition incubated for 72 hrs by celltiter 96 aqueous cell proliferation assay; conditions: HCT-116, 72 h
# HeLa S3 [8] = assay: Cytotoxicity against human HeLa S3 cells
# P388 = assay: Cytotoxicity against mouse P388 cells; conditions: p388
# B16 [9] = assay: Cytotoxicity against mouse B16 cells; conditions: b16
# NCI-H69 = assay: Cytotoxicity against human NCI-H69 cells
# P388/ADM = assay: Cytotoxicity against mouse P388/ADM cells
# NUGC-3 = assay: Cytotoxicity against human NUGC-3 cells assessed as cell growth inhibition incubated for 30 mins by MTT assay; conditions: NUGC-3, 0.5 h
smiles,measurement,setting,value
CCCCCCCCCCCCOC[C@@H](COC(C)=O)O[C@@H]1OC[C@@H](O)[C@@H](O)[C@@H]1O,IC50,HepG2,9.2 µg/mL
same,IC50,Hep 3B2,9.2 µg/mL
same,IC50,MDA-MB-231,9.2 µg/mL
same,IC50,Ca9-22,9.2 µg/mL
CCCCCCCCCCCCCCCCCCCCCCCCCCCC(=O)OC[C@H](CC[C@@H]1O[C@H](CO)[C@@H](O)[C@H](O)[C@H]1O)OC(=O)CCCCCCCCCCCCCCCCCCCCCCCCCCC,IC50,HeLa [1],> 100 µg/mL
CCCCCCCC/C=C\CCCCCCCCNC(=O)[C@H]1[C@@H]2OC(C)(C)O[C@@H]2[C@](C)(CO)N1CCCC,IC50,MIA PaCa-2,3600 nM
same,IC50,PK9,17000 nM
C/C=C/C/C(C)=C\[C@H]1C/C=C/C=C/C[C@H](C)/C=C(\C)[C@@H](OC)CCC[C@@H](O[C@@H]2O[C@H](CO)[C@@H](O)[C@H](OC)[C@H]2O)CC(=O)O1,IC50,HeLa [2],190 nM
same,IC50,HL-60,71 nM
CC/C=C\C/C=C\C/C=C\CCCCCCCC(=O)OCC(CO[C@@H]1O[C@H](CO)[C@H](O)[C@H](O)[C@H]1O)OC(=O)CCCCCCCCCCCCCCC (some centres not stated),IC50,AGS,0.039 µg/mL
same,IC50,SF-268,0.039 µg/mL
same,IC50,HCT-116 [3],0.039 µg/mL
same,IC50,NCI-H460,0.039 µg/mL
same,IC50,MCF7,0.039 µg/mL
C=C1[C@@H](OC)C/C=C/[C@@H](O[C@@H]2O[C@H](CO)[C@@H](O)[C@H](OC)[C@H]2O)CC(=O)O[C@@H](/C=C(/C)C/C=C/C)C/C=C/C=C/C[C@H](C)[C@@H]1OO,IC50,HeLa S3 [4],> 10000 nM
CC/C=C\C/C=C\C/C=C\CCCCCCCC(=O)OCC(CO[C@@H]1O[C@H](CO)[C@H](O)[C@H](O)[C@H]1O)OC(=O)CCCCCCC/C=C\C/C=C\C/C=C\CC (some centres not stated),IC50,AGS,0.039 µg/mL
same,IC50,SF-268,0.039 µg/mL
same,IC50,HCT-116 [3],0.039 µg/mL
same,IC50,NCI-H460,0.039 µg/mL
same,IC50,MCF7,0.039 µg/mL
CC/C=C\C/C=C\C/C=C\CCCCCCCC(=O)OCC(CO[C@H]1O[C@H](CN)[C@@H](O)[C@H](O)[C@H]1O)OC(=O)CCCCCCC/C=C\C/C=C\C/C=C\CC (some centres not stated),IC50,SMMC-7721,70.3 µg/mL
same,IC50,HeLa [5],70.3 µg/mL
same,IC50,B16 [6],70.3 µg/mL
C/C=C/C/C(C)=C\[C@H]1C/C=C/C=C/C[C@H](C)/C=C(\C)[C@@H](OC)C[C@@H](O)C[C@@H](O[C@@H]2O[C@H](CO)[C@@H](O)[C@H](OC)[C@H]2O)CC(=O)O1,IC50,HL-60,40 nM
same,IC50,HeLa S3 [4],6500 nM
CC/C=C\C/C=C\C/C=C\CCCCCCCC(=O)OCC(CO[C@H]1O[C@H](CNC(=O)CCc2ccc(O)cc2)[C@@H](O)[C@H](O)[C@H]1O)OC(=O)CCCCCCC/C=C\C/C=C\C/C=C\CC (some centres not stated),IC50,SMMC-7721,70.3 µg/mL
same,IC50,HeLa [5],70.3 µg/mL
same,IC50,B16 [6],70.3 µg/mL
C/C=C/C/C(C)=C/[C@H]1C/C=C/C=C/C[C@H](C)/C=C(\C)[C@@H](OC)C/C=C/[C@@H](O[C@@H]2O[C@H](CO)[C@@H](O)[C@H](OC)[C@H]2O)CC(=O)O1,IC50,HeLa [2],3100 nM
same,IC50,HL-60,660 nM
C/C=C/C/C(C)=C\[C@H]1C/C=C/C=C/C[C@H](C)/C=C(\C)[C@@H](OC)C[C@@H](O)C[C@@H](O)CC(=O)O1,IC50,HL-60,12 nM
same,IC50,HeLa S3 [4],39 nM
CO[C@@H]1/C=C(\C)C[C@H](/C=C/C#C[C@H]2C[C@@H]2Cl)OC(=O)[C@@H](C)[C@]2(O)C[C@H](O[C@@H]3O[C@@H](C)[C@H](O[C@@H]4O[C@@H](C)[C@H](O)[C@@](C)(O)[C@H]4O)[C@@](C)(O)[C@H]3OC)[C@@H](C)[C@@H](O2)[C@@H]1C,IC50,Lung NSCLC-N6 cell-line,30 µg/mL
same,IC50,HCT-116 [7],2000 nM
CCCCCCCCCCCCCC(=O)OCC(O)C[C@@H]1O[C@H](COC(C)=O)[C@H](OC(C)=O)[C@H](OC(C)=O)[C@H]1OC(C)=O (some centres not stated),IC50,HeLa [1],57 µg/mL
CCCCCCCCCCCCCCCCCCCCCCCCCCCC(=O)OC[C@H](CC[C@@H]1O[C@H](CO)[C@H](O)[C@H](O)[C@H]1O)OC(=O)CCCCCCCCCCCCCCCCCCCCCCCCCCC,IC50,HeLa [1],> 100 µg/mL
C/C=C(\C)C(O[C@@H]1O[C@H](CO)[C@@H](O)[C@H](O)[C@H]1O)C(C)/C=C(C)/C=C/CC(C)(O)/C=C/c1nc(OC)c(OC)c(O)c1C (stereo in doubt; 283),IC50,"HeLa S3 [8]; Homo sapiens, HeLa S3, read-out: IC50",0.62 µg/mL
same,IC50,P388,0.58 µg/mL
same,IC50,B16 [9],0.32 µg/mL
same,IC50,"NCI-H69; Homo sapiens, NCI-H69, read-out: IC50",0.47 µg/mL
same,IC50,"P388/ADM; Mus musculus, P388/ADM, read-out: IC50",4.3 µg/mL
C/C=C(\C)C(O[C@@H]1O[C@H](CO)[C@@H](O)[C@H](O)[C@H]1O)C(C)/C=C(C)/C=C/CC(C)(O)/C=C/c1nc(OC)c(OC)c(O)c1C (stereo in doubt; 284),IC50,HeLa S3 [8]; hela s3,0.98 µg/mL
same,IC50,P388,2.5 µg/mL
same,IC50,B16 [9],0.67 µg/mL
same,IC50,NCI-H69; nci-h69,0.83 µg/mL
same,IC50,P388/ADM; p388/adm,4.2 µg/mL
CCCCCCCCCCCCCCCCCC(=O)OCC(O)CO (configuration not stated) [GLYCERYL MONOSTEARATE],IC50,NUGC-3,100000 nM
